From ChEMBL document CHEMBL4842346, “Improving the metabolic stability of antifungal compounds based on a scaffold hopping strategy: Design, synthesis, and structure-activity relationship studies of dihydrooxazole derivatives” (Eur J Med Chem, 2021)
Converted amounts (≈) assume the structure as drawn.

Key:
[1] = test system: Candida tropicalis; experiment: Antifungal activity against Candida tropicalis GIM2.183 assessed as inhibition of fungal growth by NCCLS protocol based method; type: functional
[2] = test system: Candida albicans; experiment: Antifungal activity against Candida albicans SC5314 assessed as inhibition of fungal growth by NCCLS protocol based method; type: functional
[3] = test system: Aspergillus fumigatus; experiment: Antifungal activity against Aspergillus fumigatus CGMCC3.7795 assessed as inhibition of fungal growth by NCCLS protocol based method; type: functional
[4] = test system: Candida albicans; experiment: Antifungal activity against Candida albicans GIM2.194 assessed as inhibition of fungal growth by NCCLS protocol based method; type: functional
[5] = test system: Pichia kudriavzevii; experiment: Antifungal activity against Candida krusei GIM2.1 assessed as inhibition of fungal growth by NCCLS protocol based method; type: functional
[6] = test system: Candida parapsilosis; experiment: Antifungal activity against Candida parapsilosis GIM2.190 assessed as inhibition of fungal growth by NCCLS protocol based method; type: functional; conditions: Lodderomyces parapsilosis
[7] = test system: Candida albicans; experiment: Antifungal activity against fluconazole resistant Candida albicans CaR assessed as inhibition of fungal growth by NCCLS protocol based method; type: functional
[8] = test system: Candida albicans; experiment: Antifungal activity against fluconazole and itraconazole resistant Candida albicans 17# assessed as inhibition of fungal growth by NCCLS protocol based method; type: functional
[9] = test system: Candida albicans; experiment: Antifungal activity against Candida albicans CPCC400523 assessed as inhibition of fungal growth by NCCLS protocol based method; type: functional
[10] = test system: Cryptococcus neoformans; experiment: Antifungal activity against Cryptococcus neoformans CGMCC2.3161 assessed as inhibition of fungal growth by NCCLS protocol based method; type: functional
[11] = Metabolic stability in human liver microsomes assessed as half life at 100 uM in the presence of NADPH measured upto 60 mins by LC-MS/MS analysis; type: ADME, Microsome
[12] = target: T1, Lanosterol 14-alpha demethylase (Candida albicans (strain SC5314 / ATCC MYA-2876) (Yeast), UniProt P10613); experiment: Inhibition of Candida albicans CYP51 assessed as lanosterol level at 0.015 ug/ml measured after 18 hrs by GC-MS analysis relative to control; parameters: scale not given: the % may be the effect or the level left; conditions: at 0.015 µg/mL
T1 sequence (P10613 whole entry): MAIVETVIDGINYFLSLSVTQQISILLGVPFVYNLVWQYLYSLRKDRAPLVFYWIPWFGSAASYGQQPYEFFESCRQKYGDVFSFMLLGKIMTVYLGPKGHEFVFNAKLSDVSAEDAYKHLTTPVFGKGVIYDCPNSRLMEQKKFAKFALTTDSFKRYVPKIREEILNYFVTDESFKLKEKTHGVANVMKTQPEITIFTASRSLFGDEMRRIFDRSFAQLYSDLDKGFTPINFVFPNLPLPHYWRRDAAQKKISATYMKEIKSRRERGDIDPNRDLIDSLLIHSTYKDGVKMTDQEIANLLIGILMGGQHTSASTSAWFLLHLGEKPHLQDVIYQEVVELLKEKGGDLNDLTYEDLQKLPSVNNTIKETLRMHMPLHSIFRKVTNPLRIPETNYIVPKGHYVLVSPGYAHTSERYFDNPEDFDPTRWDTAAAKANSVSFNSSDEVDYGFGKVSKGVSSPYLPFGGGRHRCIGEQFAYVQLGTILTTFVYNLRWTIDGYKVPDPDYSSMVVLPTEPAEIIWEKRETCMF

[13] = Intrinsic microsomal clearance in human liver microsomes at 100 uM in the presence of NADPH measured up to 60 mins by LC-MS/MS analysis; type: ADME, Microsome; conditions: read-out: CLH
[14] = Intrinsic hepatic clearance in human liver microsomes at 100 uM in the presence of NADPH measured up to 60 mins by LC-MS/MS analysis; type: ADME, Microsome; conditions: 1 h
[15] = Metabolic stability in human liver microsomes assessed as compound remaining at 100 uM measured after 60 mins in the presence of NADPH by LC-MS/MS analysis; type: ADME, Microsome; conditions: read-out: Stabilty
[16] = Metabolic stability in human liver microsomes assessed as compound remaining at 100 uM measured after 60 mins in the absence of NADPH by LC-MS/MS analysis; type: ADME, Microsome; conditions: read-out: Stabilty
[17] = Metabolic stability in human plasma assessed as parent compound remaining at 100 uM measured after 60 mins by LC-MS/MS analysis; type: ADME, cell-free; conditions: read-out: Stabilty
[18] = Metabolic stability in human plasma assessed as parent compound remaining at 100 uM measured after 120 mins by LC-MS/MS analysis; type: ADME, cell-free; conditions: 2 h
[19] = Metabolic stability in human plasma assessed as half life at 100 uM measured after 60 mins by LC-MS/MS analysis; type: ADME, cell-free
[20] = target: T2, Cytochrome P450 1A2 (Homo sapiens, UniProt P05177); experiment: Inhibition of CYP1A2 in human liver microsome incubated for 10 mins in the presence of NADPH by LC-MS/MS analysis; type: ADME, microsomes
T2 sequence (P05177 whole entry): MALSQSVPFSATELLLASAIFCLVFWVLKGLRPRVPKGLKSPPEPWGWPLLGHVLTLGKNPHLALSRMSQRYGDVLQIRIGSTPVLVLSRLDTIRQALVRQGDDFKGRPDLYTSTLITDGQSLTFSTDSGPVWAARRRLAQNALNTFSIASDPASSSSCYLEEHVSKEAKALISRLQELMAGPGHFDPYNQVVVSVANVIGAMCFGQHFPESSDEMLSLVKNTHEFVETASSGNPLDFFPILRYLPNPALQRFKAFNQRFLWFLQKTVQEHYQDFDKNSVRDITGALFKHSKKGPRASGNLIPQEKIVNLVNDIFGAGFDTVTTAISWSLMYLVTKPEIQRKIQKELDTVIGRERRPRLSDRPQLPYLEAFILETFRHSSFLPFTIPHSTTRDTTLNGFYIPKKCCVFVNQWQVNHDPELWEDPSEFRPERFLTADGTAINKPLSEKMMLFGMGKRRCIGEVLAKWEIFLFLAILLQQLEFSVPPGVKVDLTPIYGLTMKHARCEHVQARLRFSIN

[21] = target: Cytochrome P450 2C9 (Homo sapiens, UniProt P11712); experiment: Inhibition of CYP2C9 in human liver microsome incubated for 10 mins in the presence of NADPH by LC-MS/MS analysis; type: ADME, microsomes
Cytochrome P450 2C9, sequence (P11712 whole entry): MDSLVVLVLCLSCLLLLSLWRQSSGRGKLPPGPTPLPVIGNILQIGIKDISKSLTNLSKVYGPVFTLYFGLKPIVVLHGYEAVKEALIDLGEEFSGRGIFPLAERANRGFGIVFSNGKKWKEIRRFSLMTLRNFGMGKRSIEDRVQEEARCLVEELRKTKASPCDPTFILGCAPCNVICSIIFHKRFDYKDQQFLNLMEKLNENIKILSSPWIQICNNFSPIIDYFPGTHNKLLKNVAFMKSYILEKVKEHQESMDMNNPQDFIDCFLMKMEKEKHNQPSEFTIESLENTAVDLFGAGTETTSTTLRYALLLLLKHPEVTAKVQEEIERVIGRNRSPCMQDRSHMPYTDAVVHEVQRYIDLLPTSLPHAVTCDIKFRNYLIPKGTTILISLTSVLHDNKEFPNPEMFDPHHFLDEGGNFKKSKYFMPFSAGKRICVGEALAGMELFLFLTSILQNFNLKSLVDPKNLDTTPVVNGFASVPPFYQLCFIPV

[22] = target: Cytochrome P450 2C19 (Homo sapiens, UniProt P33261); experiment: Inhibition of CYP2C19 in human liver microsome incubated for 10 mins in the presence of NADPH by LC-MS/MS analysis; type: ADME, microsomes
Cytochrome P450 2C19, sequence (P33261 whole entry): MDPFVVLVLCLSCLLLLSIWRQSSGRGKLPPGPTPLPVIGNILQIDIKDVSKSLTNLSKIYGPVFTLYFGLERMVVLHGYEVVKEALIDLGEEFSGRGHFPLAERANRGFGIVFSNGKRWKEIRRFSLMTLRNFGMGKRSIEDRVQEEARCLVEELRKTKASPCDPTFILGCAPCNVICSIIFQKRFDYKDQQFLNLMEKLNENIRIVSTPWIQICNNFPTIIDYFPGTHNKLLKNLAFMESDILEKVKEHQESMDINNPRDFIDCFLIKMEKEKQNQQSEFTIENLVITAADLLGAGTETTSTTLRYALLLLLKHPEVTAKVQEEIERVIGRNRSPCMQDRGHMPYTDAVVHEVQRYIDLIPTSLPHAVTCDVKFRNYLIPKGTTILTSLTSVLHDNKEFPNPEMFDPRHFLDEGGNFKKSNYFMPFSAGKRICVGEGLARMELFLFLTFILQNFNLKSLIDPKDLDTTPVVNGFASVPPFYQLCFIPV

[23] = target: Cytochrome P450 2D6 (Homo sapiens, UniProt P10635); experiment: Inhibition of CYP2D6 in human liver microsome incubated for 10 mins in the presence of NADPH by LC-MS/MS analysis; type: ADME, microsomes
Cytochrome P450 2D6, sequence (P10635 whole entry): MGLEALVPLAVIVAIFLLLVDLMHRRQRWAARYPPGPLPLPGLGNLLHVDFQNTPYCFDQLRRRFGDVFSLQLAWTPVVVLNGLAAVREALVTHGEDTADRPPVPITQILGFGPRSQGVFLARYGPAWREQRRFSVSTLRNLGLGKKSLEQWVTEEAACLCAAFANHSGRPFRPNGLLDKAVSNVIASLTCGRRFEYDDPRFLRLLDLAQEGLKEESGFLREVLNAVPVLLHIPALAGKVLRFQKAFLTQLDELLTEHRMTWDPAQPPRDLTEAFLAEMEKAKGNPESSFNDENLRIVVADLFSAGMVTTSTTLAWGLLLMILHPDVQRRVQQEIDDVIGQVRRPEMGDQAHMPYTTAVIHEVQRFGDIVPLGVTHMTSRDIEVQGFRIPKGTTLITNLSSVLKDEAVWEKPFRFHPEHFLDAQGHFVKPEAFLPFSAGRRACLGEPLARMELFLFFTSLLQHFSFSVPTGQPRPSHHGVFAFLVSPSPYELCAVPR

[24] = target: Cytochrome P450 3A4 (Homo sapiens, UniProt P08684); experiment: Inhibition of CYP3A4 in human liver microsome incubated for 10 mins in the presence of NADPH by LC-MS/MS analysis; type: ADME, microsomes
Cytochrome P450 3A4, sequence (P08684 whole entry): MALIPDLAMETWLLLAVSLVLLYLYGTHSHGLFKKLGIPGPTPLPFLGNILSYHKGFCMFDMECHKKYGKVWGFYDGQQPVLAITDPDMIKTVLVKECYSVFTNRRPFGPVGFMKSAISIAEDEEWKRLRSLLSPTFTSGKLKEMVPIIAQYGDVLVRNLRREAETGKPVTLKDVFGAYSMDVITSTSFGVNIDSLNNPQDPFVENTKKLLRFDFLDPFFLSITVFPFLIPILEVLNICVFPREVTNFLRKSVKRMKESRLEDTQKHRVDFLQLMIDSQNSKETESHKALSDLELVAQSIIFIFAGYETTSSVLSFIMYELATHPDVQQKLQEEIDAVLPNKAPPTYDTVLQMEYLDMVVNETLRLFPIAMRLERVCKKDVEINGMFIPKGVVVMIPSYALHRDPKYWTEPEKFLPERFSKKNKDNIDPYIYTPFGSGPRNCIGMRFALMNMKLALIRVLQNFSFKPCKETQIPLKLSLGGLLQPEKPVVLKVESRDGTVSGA

[25] = target: T1, Lanosterol 14-alpha demethylase; experiment: Inhibition of Candida albicans CYP51 assessed as ergosterol level at 0.015 ug/ml measured after 18 hrs by GC-MS analysis relative to control; parameters: scale not given: the % may be the effect or the level left; conditions: at 0.015 µg/mL
[26] = target: T1, Lanosterol 14-alpha demethylase; experiment: Inhibition of Candida albicans CYP51 assessed as eburicol level at 0.015 ug/ml measured after 18 hrs by GC-MS analysis relative to control; parameters: scale not given: the % may be the effect or the level left; conditions: at 0.015 µg/mL
[27] = target: T1, Lanosterol 14-alpha demethylase; experiment: Inhibition of Candida albicans CYP51 assessed as 14alpha-methylergosta-8,24(28)-dien3beta-6alpha-diol level at 0.015 ug/ml measured after 18 hrs by GC-MS analysis relative to control; parameters: scale not given: the % may be the effect or the level left; conditions: at 0.015 µg/mL
[28] = target: T1, Lanosterol 14-alpha demethylase; experiment: Inhibition of Candida albicans CYP51 assessed as unknown sterol level at 0.015 ug/ml measured after 18 hrs by GC-MS analysis relative to control; parameters: scale not given: the % may be the effect or the level left; conditions: at 0.015 µg/mL
[29] = test system: Cryptococcus neoformans; experiment: Antifungal activity against Cryptococcus neoformans GIM2.209 assessed as inhibition of fungal growth by NCCLS protocol based method; type: functional

half-life at 100 µM [11] [min] | Structure (SMILES) | MIC [1] [µg/mL] | MIC [2] [µg/mL] | MIC [3] [µg/mL] | MIC [4] [µg/mL] | MIC [5] [µg/mL] | MIC [6] [µg/mL] | MIC [7] [µg/mL] | MIC [8] [µg/mL] | other results
– | Fc1cccc(-c2ccc(C3=NC(Cn4cncn4)(c4ccc(Cl)cc4)CO3)cc2)c1 (stereo not drawn) | 0.06 (≈ 0.139 µM) | < 0.03 | > 64 | < 0.03 | 0.25 (≈ 0.578 µM) | 4 (≈ 9.24 µM) | 0.25 (≈ 0.578 µM) | > 64 | –
– | Fc1cccc(-c2ccc(C3=NC(Cn4cncn4)(c4ccc(F)cc4F)CO3)cc2)c1 (stereo not drawn) | 0.06 (≈ 0.138 µM) | < 0.03 | > 64 | 0.06 (≈ 0.138 µM) | 0.25 (≈ 0.575 µM) | > 64 | 0.5 (≈ 1.15 µM) | > 64 | –
3.6 | CC[C@H](C)[C@@H](Cn1ccnc1)NC(=O)c1ccc(-c2ccccc2)cc1F | – | < 0.03 | 2 (≈ 5.47 µM) | – | – | – | – | – | MIC [9]: < 0.03 µg/mL; MIC [10]: 1 µg/mL (≈ 2.74 µM)
106 | c1ccc(-c2ccc(C3=NC(Cn4ccnc4)(c4ccccc4)CO3)cc2)cc1 (stereo not drawn) | < 0.125 | < 0.125 | 1 (≈ 2.64 µM) | < 0.125 | – | – | – | – | MIC [29]: 32 µg/mL (≈ 84.3 µM)

Structure (SMILES) | half-life at 100 µM [11] [min] | MIC [1] [µg/mL] | MIC [2] [µg/mL] | MIC [3] [µg/mL] | MIC [4] [µg/mL] | MIC [5] [µg/mL] | MIC [6] [µg/mL] | MIC [7] [µg/mL] | MIC [8] [µg/mL] | other results
Fc1ccc(C2(Cn3cncn3)COC(c3ccc(-c4cccc(F)c4)cc3)=N2)cc1 (stereo not drawn) | 59.1 | 0.06 (≈ 0.144 µM) | < 0.03 | > 64 | < 0.03 | 0.25 (≈ 0.6 µM) | 8 (≈ 19.2 µM) | 0.5 (≈ 1.2 µM) | > 64 | Activity [12]: 18.96%; microsomal CLint at 100 µM [13]: 23.5 µL/min/mg; CLH [14]: 1.27 mL/h/kg; remaining at 1 h, 100 µM [15]: 47.1%; remaining at 1 h, 100 µM [16]: 79.9%; remaining at 1 h, 100 µM [17]: 98.7%; Stabilty [18]: 115.8%; half-life at 100 µM [19]: > 288 min; IC50 [20]: 21.2 µM; IC50 [21]: 3.8 µM; IC50 [22]: 1.3 µM; IC50 [23]: 40.1 µM; IC50 [24]: 15.2 µM; Activity [25]: 35.8%; Activity [26]: 7.04%; Activity [27]: 34.14%; Activity [28]: 1.73%
